This note sets out measurements from publication PMC6120666 (The EMBO Journal, 2018).

The structures appear in SMILES notation.

Assay in all cases: Drug affinity chromatography with c-ponatinib and LC-MS/MS (ponatinib interactome)
Format in all cases: binding

In experiment [1] the target is T1, proteins of U2OS cell lysate (Homo sapiens, UniProt O75533).
T1 construct: Proteins enriched by c-ponatinib from U2OS cell lysate; endogenous in cells; host or cells: U2OS cell lysate
A digest of the protocol: (§1)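 Proteins were identified by nano-UPLC–MS/MS after elution with formic acid and trypsin digestion. They were captured from U2OS lysate (2 mg protein per pulldown, NP-40 buffer) on amine-coupled NHS beads during a 2 h incubation at 4 °C.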

Experiment [2] deals with T2, proteins of U2OS cell lysate (Homo sapiens, UniProt P52907).
T2 construct: Proteins enriched by c-ponatinib from U2OS cell lysate; endogenous in cells; host or cells: U2OS cell lysate
A digest of the protocol: as §1

For experiment [3], the target named is T3, proteins of U2OS cell lysate (Homo sapiens, UniProt P09497).
T3 construct: Proteins enriched by c-ponatinib from U2OS cell lysate; endogenous in cells; host or cells: U2OS cell lysate
A digest of the protocol: as §1

Experiment [4] has as its target T4, proteins of U2OS cell lysate (Homo sapiens, UniProt P14618).
T4 construct: Proteins enriched by c-ponatinib from U2OS cell lysate; endogenous in cells; host or cells: U2OS cell lysate
A digest of the protocol:
as §1

Experiment [5] addresses T5, proteins of U2OS cell lysate (Homo sapiens, UniProt P29597).
T5 construct: Proteins enriched by c-ponatinib from U2OS cell lysate; endogenous in cells; host or cells: U2OS cell lysate
A digest of the protocol:
as §1

For experiment [6], the target named is T6, proteins of U2OS cell lysate (Homo sapiens, UniProt P04049).
T6 construct: Proteins enriched by c-ponatinib from U2OS cell lysate; endogenous in cells; host or cells: U2OS cell lysate
A digest of the protocol:
as §1

Experiment [7] deals with T7, proteins of U2OS cell lysate (Homo sapiens, UniProt O75964).
T7 construct: Proteins enriched by c-ponatinib from U2OS cell lysate; endogenous in cells; host or cells: U2OS cell lysate
In short, it runs like this:
as §1

The target in experiment [8] is T8, proteins of U2OS cell lysate (Homo sapiens, UniProt Q15019).
T8 construct: Proteins enriched by c-ponatinib from U2OS cell lysate; endogenous in cells; host or cells: U2OS cell lysate
A digest of the protocol:
as §1

Experiment [9] addresses T9, proteins of U2OS cell lysate (Homo sapiens, UniProt P83436).
T9 construct: Proteins enriched by c-ponatinib from U2OS cell lysate; endogenous in cells; host or cells: U2OS cell lysate
A digest of the protocol: as §1

The target in experiment [10] is T10, proteins of U2OS cell lysate (Homo sapiens, UniProt P62701).
T10 construct: Proteins enriched by c-ponatinib from U2OS cell lysate; endogenous in cells; host or cells: U2OS cell lysate
In short, it runs like this:
as §1

Experiment [11] addresses T11, proteins of U2OS cell lysate (Homo sapiens, UniProt P62195).
T11 construct: Proteins enriched by c-ponatinib from U2OS cell lysate; endogenous in cells; host or cells: U2OS cell lysate
A digest of the protocol: as §1

The target in experiment [12] is T12, proteins of U2OS cell lysate (Homo sapiens, UniProt O75369).
T12 construct: Proteins enriched by c-ponatinib from U2OS cell lysate; endogenous in cells; host or cells: U2OS cell lysate
In short, it runs like this: as §1

Experiment [13] addresses T13, proteins of U2OS cell lysate (Homo sapiens, UniProt Q9Y262).
T13 construct: Proteins enriched by c-ponatinib from U2OS cell lysate; endogenous in cells; host or cells: U2OS cell lysate
In short, it runs like this:
as §1

In experiment [14] the target is T14, proteins of U2OS cell lysate (Homo sapiens, UniProt P23396).
T14 construct: Proteins enriched by c-ponatinib from U2OS cell lysate; endogenous in cells; host or cells: U2OS cell lysate
In short, it runs like this: as §1

Experiment [15] concerns the target T15, proteins of U2OS cell lysate (Homo sapiens, UniProt Q13409).
T15 construct: Proteins enriched by c-ponatinib from U2OS cell lysate; endogenous in cells; host or cells: U2OS cell lysate
In short, it runs like this:
as §1

In experiment [16] the target is T16, proteins of U2OS cell lysate (Homo sapiens, UniProt Q9UQ35).
T16 construct: Proteins enriched by c-ponatinib from U2OS cell lysate; endogenous in cells; host or cells: U2OS cell lysate
A digest of the protocol:
as §1

The target in experiment [17] is T17, proteins of U2OS cell lysate (Homo sapiens, UniProt P06733).
T17 construct: Proteins enriched by c-ponatinib from U2OS cell lysate; endogenous in cells; host or cells: U2OS cell lysate
A digest of the protocol: as §1

Experiment [18] deals with T18, proteins of U2OS cell lysate (Homo sapiens, UniProt O95816).
T18 construct: Proteins enriched by c-ponatinib from U2OS cell lysate; endogenous in cells; host or cells: U2OS cell lysate
In short, it runs like this: as §1

Experiment [19] has as its target T19, proteins of U2OS cell lysate (Homo sapiens, UniProt Q9BQE3).
T19 construct: Proteins enriched by c-ponatinib from U2OS cell lysate; endogenous in cells; host or cells: U2OS cell lysate
A digest of the protocol:
as §1

T6 sequence (P04049 whole entry): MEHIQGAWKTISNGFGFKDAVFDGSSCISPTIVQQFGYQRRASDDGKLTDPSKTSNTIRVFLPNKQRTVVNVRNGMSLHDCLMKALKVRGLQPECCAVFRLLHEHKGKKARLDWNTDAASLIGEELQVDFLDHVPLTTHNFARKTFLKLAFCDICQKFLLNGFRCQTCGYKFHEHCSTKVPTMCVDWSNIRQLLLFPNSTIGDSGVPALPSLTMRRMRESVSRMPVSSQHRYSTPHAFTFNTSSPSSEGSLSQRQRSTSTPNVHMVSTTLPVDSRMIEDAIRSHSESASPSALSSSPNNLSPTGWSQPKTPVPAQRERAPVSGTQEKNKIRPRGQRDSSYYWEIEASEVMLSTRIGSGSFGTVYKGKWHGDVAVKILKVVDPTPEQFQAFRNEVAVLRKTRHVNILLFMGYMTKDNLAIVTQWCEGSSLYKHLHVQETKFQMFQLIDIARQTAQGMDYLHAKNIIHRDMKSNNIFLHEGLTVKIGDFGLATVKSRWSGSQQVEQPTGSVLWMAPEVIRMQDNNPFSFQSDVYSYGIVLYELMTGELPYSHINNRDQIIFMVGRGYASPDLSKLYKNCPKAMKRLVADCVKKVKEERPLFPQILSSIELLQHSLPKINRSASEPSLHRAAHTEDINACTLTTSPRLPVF
T3 sequence (P09497 whole entry): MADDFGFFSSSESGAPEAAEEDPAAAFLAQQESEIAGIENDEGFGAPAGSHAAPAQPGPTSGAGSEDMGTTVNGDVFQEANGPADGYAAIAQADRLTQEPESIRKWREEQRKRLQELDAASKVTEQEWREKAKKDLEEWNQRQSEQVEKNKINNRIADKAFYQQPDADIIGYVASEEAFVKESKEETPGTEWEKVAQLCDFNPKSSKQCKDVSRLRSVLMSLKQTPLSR
T17 sequence (P06733 whole entry): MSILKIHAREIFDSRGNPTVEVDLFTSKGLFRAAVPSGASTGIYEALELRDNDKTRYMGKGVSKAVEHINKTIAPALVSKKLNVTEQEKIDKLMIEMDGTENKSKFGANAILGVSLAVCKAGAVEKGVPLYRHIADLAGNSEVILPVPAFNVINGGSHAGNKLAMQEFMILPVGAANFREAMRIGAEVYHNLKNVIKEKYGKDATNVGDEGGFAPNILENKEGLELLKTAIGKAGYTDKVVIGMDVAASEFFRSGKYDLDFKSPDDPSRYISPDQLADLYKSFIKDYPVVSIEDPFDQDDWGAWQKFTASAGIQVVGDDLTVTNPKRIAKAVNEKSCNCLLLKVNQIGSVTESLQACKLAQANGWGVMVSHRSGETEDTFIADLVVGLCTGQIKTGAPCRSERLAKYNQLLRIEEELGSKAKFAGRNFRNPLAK
T19 sequence (Q9BQE3 whole entry): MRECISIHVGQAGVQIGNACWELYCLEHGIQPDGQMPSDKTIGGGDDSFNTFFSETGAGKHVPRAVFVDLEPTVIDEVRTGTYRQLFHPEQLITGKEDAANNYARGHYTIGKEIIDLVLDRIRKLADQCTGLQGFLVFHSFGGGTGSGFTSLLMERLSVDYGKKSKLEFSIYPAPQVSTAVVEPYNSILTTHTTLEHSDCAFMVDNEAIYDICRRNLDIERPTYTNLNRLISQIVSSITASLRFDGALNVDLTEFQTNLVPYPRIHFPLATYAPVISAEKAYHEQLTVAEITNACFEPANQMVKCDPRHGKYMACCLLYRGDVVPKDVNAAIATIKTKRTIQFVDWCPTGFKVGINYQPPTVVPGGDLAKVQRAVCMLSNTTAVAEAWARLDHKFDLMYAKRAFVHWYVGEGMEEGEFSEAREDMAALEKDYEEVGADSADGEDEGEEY
T8 sequence (Q15019 whole entry): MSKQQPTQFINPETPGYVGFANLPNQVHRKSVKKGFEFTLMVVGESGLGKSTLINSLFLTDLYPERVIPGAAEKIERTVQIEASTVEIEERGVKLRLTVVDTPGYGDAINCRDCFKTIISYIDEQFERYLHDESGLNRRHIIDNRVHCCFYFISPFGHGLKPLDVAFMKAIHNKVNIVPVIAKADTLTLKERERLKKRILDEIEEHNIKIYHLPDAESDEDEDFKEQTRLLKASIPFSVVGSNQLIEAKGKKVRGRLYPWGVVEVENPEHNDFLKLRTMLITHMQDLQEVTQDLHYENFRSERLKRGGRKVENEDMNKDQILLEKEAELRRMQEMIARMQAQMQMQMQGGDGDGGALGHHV
T18 sequence (O95816 whole entry): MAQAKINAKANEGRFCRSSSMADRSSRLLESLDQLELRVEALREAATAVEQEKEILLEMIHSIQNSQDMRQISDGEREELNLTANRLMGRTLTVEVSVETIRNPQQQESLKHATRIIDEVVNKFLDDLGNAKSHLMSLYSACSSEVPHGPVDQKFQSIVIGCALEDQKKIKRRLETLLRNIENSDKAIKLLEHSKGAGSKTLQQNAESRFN
T13 sequence (Q9Y262 whole entry): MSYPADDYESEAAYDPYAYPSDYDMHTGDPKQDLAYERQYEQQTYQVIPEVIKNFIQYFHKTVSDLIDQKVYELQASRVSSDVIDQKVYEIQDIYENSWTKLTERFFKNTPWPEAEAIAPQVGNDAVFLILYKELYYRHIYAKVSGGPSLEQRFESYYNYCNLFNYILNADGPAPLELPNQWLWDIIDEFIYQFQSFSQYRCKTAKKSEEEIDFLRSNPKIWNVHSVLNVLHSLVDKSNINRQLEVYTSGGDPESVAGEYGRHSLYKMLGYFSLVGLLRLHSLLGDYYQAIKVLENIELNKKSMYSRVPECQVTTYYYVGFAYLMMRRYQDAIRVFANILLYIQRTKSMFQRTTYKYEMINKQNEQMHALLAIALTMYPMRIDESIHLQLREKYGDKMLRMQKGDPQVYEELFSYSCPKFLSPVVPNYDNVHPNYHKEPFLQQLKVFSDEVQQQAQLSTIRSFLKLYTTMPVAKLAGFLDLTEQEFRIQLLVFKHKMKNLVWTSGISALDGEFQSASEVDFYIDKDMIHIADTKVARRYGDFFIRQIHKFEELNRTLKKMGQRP
T11 sequence (P62195 whole entry): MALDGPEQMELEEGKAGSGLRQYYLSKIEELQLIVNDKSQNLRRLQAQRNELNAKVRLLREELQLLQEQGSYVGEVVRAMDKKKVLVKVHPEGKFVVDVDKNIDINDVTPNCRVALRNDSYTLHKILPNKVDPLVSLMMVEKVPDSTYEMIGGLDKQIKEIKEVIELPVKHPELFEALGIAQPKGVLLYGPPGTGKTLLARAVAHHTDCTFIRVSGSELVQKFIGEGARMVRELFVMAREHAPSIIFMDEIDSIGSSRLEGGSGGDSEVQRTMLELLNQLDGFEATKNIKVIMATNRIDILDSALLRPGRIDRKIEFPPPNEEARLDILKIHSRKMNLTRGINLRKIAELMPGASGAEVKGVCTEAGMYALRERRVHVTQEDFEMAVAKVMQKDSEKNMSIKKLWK
T5 sequence (P29597 whole entry): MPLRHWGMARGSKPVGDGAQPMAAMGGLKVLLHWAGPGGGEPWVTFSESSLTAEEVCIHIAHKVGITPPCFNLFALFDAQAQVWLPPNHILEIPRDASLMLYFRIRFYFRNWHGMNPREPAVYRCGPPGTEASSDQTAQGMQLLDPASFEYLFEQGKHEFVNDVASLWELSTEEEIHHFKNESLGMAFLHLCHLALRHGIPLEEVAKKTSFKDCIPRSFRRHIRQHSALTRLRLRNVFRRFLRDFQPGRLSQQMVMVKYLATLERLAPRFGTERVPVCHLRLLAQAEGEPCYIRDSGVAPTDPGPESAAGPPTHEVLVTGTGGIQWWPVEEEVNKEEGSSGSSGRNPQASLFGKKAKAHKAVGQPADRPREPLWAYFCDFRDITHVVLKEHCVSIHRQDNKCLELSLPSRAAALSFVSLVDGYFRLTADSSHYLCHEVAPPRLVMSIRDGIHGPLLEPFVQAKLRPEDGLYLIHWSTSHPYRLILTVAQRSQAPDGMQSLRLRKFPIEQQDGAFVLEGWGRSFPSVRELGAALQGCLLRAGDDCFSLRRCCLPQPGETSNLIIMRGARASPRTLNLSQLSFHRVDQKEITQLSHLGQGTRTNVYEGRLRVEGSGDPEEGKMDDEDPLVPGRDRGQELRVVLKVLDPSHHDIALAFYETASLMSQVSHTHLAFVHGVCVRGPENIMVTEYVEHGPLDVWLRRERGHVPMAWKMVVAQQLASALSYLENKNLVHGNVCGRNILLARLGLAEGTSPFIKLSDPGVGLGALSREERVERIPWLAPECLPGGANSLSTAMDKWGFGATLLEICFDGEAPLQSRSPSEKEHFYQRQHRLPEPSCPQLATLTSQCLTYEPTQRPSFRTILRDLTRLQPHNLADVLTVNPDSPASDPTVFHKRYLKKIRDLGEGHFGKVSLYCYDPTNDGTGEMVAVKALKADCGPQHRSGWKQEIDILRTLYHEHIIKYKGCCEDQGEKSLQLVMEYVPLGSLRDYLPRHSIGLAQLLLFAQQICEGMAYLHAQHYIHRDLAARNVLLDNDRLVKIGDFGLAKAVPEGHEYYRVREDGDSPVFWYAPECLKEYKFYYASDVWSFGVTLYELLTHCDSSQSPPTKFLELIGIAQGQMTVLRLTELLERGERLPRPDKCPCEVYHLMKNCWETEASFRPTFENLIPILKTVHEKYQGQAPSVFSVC
T7 sequence (O75964 whole entry): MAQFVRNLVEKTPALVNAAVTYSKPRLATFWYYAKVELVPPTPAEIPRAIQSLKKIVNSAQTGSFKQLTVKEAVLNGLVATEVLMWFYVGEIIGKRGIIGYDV

For `Cc1ccc(C(=O)Nc2ccc(CN3CCN(C)CC3)c(C(F)(F)F)c2)cc1C#Cc1cnc2cccnn12` [PON], the “Average LFQ PON_WT” value was found to be 22.352 in experiment [1] (SF3B1, Splicing factor 3B subunit 1); 21.8548 in experiment [2] (CAPZA1, F-actin-capping protein subunit alpha-1); 22.5074 in experiment [3] (CLTB, Clathrin light chain B); 21.567 in [4] (PKM, Pyruvate kinase PKM); 22.5645 in experiment [5] (TYK2, Non-receptor tyrosine-protein kinase TYK2); 21.5684 in [6] (RAF1, RAF proto-oncogene serine/threonine-protein kinase). Also, the “Average LFQ PON_WT” value in [7] (ATP5L, ATP synthase subunit g, mitochondrial) amounted to 22.9891; in experiment [8] (SEPT2, Septin-2), 22.2443; in experiment [9] (COG7, Conserved oligomeric Golgi complex subunit 7) it was 22.1578; in [10] (RPS4X, 40S ribosomal protein S4, X isoform), 22.7536; in experiment [11] (PSMC5, 26S protease regulatory subunit 8), 22.2388; in [12] (FLNB, Filamin-B), 21.8609. Besides, the “Average LFQ PON_WT” value came out at 22.8981 in experiment [13] (EIF3L, Eukaryotic translation initiation factor 3 subunit L); 21.7356 in experiment [14] (RPS3, 40S ribosomal protein S3); 22.2038 in [15] (DYNC1I2, Cytoplasmic dynein 1 intermediate chain 2); 21.862 in [16] (SRRM2, Serine/arginine repetitive matrix protein 2); 21.9992 in [17] (ENO1, Alpha-enolase); 22.6462 in [18] (BAG2, BAG family molecular chaperone regulator 2). Moreover, in experiment [19] (TUBA1C, Tubulin alpha-1C chain), the “Average LFQ PON_WT” value is on record as 21.711.

As for `Cc1ccc(C(=O)Nc2ccc(CN3CCN(CCCN)CC3)c(C(F)(F)F)c2)cc1C#Cc1cnc2cccnn12` [c-ponatinib, reference compound], the “Average LFQ intensity” value in [1] (captured protein SF3B1, Rank 165) is recorded as 22.352; in experiment [2] (captured protein CAPZA1, Rank 200), 21.8548; in experiment [3] (captured protein CLTB, Rank 157), 22.5074; in [4] (captured protein PKM, Rank 224), 21.567; in experiment [5] (captured protein TYK2, Rank 155), 22.5645; in experiment [6] (captured protein RAF1, Rank 223), 21.5685. Besides, the “Average LFQ intensity” value in [7] (captured protein ATP5L, Rank 125) turned out to be 22.9891; in experiment [8] (captured protein 2002-09-01 (Septin-2), Rank 174), 22.2443; in experiment [9] (captured protein COG7, Rank 182), 22.1578; in experiment [10] (captured protein RPS4X, Rank 140), 22.7536; in experiment [11] (captured protein PSMC5, Rank 176), 22.2388; in experiment [12] (captured protein FLNB, Rank 198) it was 21.8609. Moreover, the “Average LFQ intensity” value in [13] (captured protein EIF3L, Rank 130) came out at 22.8981; in [14] (captured protein RPS3, Rank 210), 21.7357; in [15] (captured protein DYNC1I2, Rank 179) it was 22.2038; in experiment [16] (captured protein SRRM2, Rank 197), 21.862; in experiment [17] (captured protein ENO1, Rank 190) it was 21.9992; in experiment [18] (captured protein BAG2, Rank 152) it was 22.6462. For the same molecule, the “Average LFQ intensity” value in [19] (captured protein TUBA1C, Rank 213) was 21.711.
